Measurements from US20260108533A1, “COMPOSITIONS AND METHODS FOR THE TREATMENT OF MEIBOMIAN GLAND DYSFUNCTION” (Azura Ophthalmics Ltd., priority 2019, published 2026).

System: stratum corneum (SC)
Experiment: Stratum corneum (SC) tape stripping, keratolytic efficacy
Type: in vivo
Settings: for increase of SC removal: for 3-6 hours
Text: Keratolytic efficacy of an agent is optionally assessed by examining stratum corneum (SC) tape strippings to measure the total SC protein amount removed and on the tape. The amount of skin mass on the tape is directly proportional to the amount of keratolysis. Salicylic acid is a keratolytic, while retinoic acid is known mostly for its comedolytic properties, and benzoyl peroxide is known mostly for its anti-microbial mechanism. Here, all three were examined for relative keratolytic efficacy.

| Structure (SMILES) | effectiveness in interfering with SC cohesion (After 3 hours) | increase of SC removal | keratolytic effects (tape stripping) (overall comparison) |
| --- | --- | --- | --- |
| O=C(OOC(=O)c1ccccc1)c1ccccc1 [benzoyl peroxide] | significantly more effective in interfering with SC cohesion than either salicylic acid or retinoic acid | about 10% | comparable to that of salicylic acid and retinoic acid |
| CC1=C(/C=C/C(C)=C/C=C/C(C)=C/C(=O)O)C(C)(C)CCC1 [retinoic acid] | – | approximately 35% | – |
| O=C(O)c1ccccc1O [salicylic acid] | – | about 10% | – |
